These results are taken from ChEMBL document CHEMBL2150859, “Design, synthesis, and evaluation of 3,5-disubstituted 7-azaindoles as Trk inhibitors with anticancer and antiangiogenic activities” (J Med Chem, 2012).

Structures are written as SMILES.

For experiment [1], the target named is T1, High affinity nerve growth factor receptor (Homo sapiens, UniProt P04629). The experiment in a line: Inhibition of TRKA assessed as [gamma33P]ATP incorporation into substrate.
Target sequence in this assay (P04629 whole entry): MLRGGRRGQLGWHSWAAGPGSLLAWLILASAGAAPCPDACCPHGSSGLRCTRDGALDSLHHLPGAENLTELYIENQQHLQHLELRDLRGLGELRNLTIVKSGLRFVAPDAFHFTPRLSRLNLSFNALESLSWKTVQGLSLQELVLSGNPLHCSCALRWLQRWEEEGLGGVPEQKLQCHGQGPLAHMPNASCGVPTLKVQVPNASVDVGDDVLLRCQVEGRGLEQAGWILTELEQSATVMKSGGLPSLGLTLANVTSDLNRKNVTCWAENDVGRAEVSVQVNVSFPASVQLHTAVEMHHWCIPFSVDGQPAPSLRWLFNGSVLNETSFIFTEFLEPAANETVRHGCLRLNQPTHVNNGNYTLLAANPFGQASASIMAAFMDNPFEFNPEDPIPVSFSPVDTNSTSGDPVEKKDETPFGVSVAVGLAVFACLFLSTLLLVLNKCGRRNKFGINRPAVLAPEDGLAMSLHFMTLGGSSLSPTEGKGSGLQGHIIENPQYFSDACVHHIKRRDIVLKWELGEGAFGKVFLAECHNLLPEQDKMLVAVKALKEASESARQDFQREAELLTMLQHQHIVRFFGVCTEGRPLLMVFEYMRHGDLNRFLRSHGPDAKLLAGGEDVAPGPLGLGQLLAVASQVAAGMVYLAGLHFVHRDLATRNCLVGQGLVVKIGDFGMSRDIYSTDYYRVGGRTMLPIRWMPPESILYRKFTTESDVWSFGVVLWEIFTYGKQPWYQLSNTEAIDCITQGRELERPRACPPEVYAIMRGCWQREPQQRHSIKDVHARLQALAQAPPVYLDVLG
Another experiment relates to MCF7. Put plainly: cells. To be noted: Homo sapiens, MCF7, 48 h.
The target in experiment [2] is T1, High affinity nerve growth factor receptor. Put plainly: Binding affinity to TRKA by high throughput assay.
Target sequence in this assay (P04629 whole entry): as above
The target of experiment [3] is Phosphatidylinositol 4,5-bisphosphate 3-kinase catalytic subunit alpha isoform (Homo sapiens, UniProt P42336). Put plainly: Binding affinity to PI3Kalpha at 10 uM by high throughput binding assay relative to control.
Experiment [4] has as its target T1, High affinity nerve growth factor receptor. The experiment in a line: Binding affinity to TRKA at 10 uM by high throughput binding assay relative to control.
Target sequence in this assay (P04629 33-796 limits assumed): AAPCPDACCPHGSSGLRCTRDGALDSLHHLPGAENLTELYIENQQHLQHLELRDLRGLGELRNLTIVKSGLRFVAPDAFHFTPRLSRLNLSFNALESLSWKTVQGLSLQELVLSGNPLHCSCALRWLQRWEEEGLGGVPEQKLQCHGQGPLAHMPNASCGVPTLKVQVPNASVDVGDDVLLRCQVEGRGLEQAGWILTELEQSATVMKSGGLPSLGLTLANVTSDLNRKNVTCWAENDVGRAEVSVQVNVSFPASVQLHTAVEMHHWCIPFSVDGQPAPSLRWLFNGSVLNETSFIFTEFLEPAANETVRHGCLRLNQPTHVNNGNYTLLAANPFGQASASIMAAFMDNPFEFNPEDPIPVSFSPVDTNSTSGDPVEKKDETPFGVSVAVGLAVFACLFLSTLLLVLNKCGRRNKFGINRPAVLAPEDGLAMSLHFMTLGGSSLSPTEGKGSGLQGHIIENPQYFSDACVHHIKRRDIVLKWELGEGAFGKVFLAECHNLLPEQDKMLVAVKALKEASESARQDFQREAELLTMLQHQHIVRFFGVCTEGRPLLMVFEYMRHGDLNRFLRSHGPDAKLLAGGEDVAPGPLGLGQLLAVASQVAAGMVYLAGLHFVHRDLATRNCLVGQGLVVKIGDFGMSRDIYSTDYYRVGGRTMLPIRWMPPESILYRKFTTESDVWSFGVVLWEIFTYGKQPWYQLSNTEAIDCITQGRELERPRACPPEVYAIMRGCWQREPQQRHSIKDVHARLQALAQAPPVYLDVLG

Phosphatidylinositol 4,5-bisphosphate 3-kinase catalytic subunit alpha isoform, sequence (P42336 whole entry, canonical isoform): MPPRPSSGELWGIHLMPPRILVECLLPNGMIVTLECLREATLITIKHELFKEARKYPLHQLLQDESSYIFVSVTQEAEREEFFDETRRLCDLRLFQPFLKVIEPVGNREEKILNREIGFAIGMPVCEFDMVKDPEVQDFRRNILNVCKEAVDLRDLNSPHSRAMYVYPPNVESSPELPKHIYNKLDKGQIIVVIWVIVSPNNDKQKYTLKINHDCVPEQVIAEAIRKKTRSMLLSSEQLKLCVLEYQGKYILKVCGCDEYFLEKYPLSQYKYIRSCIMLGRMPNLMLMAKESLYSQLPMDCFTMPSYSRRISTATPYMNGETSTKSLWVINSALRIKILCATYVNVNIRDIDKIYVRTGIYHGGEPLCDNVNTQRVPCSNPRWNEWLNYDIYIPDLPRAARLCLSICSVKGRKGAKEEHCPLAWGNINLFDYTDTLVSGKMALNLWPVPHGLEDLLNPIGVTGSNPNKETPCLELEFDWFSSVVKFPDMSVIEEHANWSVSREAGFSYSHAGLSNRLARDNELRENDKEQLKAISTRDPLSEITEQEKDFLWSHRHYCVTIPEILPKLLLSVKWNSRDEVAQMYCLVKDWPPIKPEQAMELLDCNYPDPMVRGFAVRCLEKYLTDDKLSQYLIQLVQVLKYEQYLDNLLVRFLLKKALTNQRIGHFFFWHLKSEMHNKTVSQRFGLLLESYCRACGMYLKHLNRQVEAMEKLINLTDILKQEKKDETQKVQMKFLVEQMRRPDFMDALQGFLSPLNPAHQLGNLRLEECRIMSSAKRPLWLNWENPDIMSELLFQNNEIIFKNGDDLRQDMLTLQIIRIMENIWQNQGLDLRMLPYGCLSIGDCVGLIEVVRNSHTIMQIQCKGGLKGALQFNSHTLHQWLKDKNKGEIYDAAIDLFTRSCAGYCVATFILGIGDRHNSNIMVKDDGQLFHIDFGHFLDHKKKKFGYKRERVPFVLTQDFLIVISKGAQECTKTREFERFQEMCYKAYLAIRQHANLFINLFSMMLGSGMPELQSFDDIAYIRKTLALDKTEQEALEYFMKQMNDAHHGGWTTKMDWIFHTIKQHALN
Description for MCF7: Cytotoxicity against human MCF7 cells after 48 hrs by MTT assay

As usually defined, the IC50 is the point on the concentration scale where inhibition reaches its midpoint. `COc1cccc(-c2cnc3[nH]cc(-c4ccncc4)c3c2)c1`: the results for the IC50 (in experiment [1]; with MCF7) were 0.0227 µM and 11.7 µM, respectively.

Consider `COc1ccc(N)cc1-c1cnc2[nH]cc(-c3ccncc3)c2c1`, for which the IC50 came to 0.11 µM in experiment [1] and 5.4 µM with MCF7.

For the compound `Nc1ccc(-c2cnc3[nH]cc(-c4ccncc4)c3c2)cc1`, the IC50 turned out to be 0.025 µM in experiment [1] and 7.7 µM in the experiment on MCF7.

A word on the Kd: it is a measure of binding affinity in units of concentration. In experiment [2], `Nc1cccc(-c2cnc3[nH]cc(-c4ccccc4)c3c2)c1` returned a Kd of 0.088 µM. Moreover, the Activity came out at 100% in experiment [3] and 0.3% in experiment [4].

`Nc1cc(-c2cnc3[nH]cc(-c4ccncc4)c3c2)ccc1Cl`: the IC50 was 0.0537 µM in experiment [1] and 12 µM in the experiment on MCF7.

Consider `Nc1cc(-c2cnc3[nH]cc(-c4ccncc4)c3c2)ccc1C(=O)N1CCOCC1`, for which the values for the IC50 (in experiment [1]; in the experiment on MCF7) were 0.0886 µM and 8.5 µM, respectively.

On to `COc1ccc(-c2c[nH]c3ncc(-c4cccc(C#N)c4)cc23)cc1OC`, for which the Activity in experiment [3] was determined as 69%; in experiment [4], 26%.

For `CS(=O)(=O)Nc1cccc(-c2c[nH]c3ncc(-c4cncc(NS(=O)(=O)c5ccccc5)c4)cc23)c1`, the Activity was found to be 0.9% in experiment [3] and 9.6% in experiment [4].

As to `CN(C)CCOc1ccc(-c2cnc3[nH]cc(-c4ccncc4)c3c2)cc1N`, the figures for the IC50 (in experiment [1]; in the experiment with MCF7) were 0.047 µM and 3.1 µM, respectively.

On to `CS(=O)(=O)Nc1cc(N)cc(-c2cnc3[nH]cc(-c4ccncc4)c3c2)c1`, for which the IC50 in experiment [1] is 0.0338 µM; with MCF7, > 30 µM.

Turning to `COc1ccc(-c2c[nH]c3ncc(-c4cccc(N)c4)cc23)cc1OC`, binding in experiment [2] was characterised by a dissociation constant (Kd) of 0.125 µM. The results for the Activity in experiment [3] and in experiment [4] were 59% and 1.3%, respectively.

In the case of `Nc1cc(NS(=O)(=O)c2ccccc2)cc(-c2cnc3[nH]cc(-c4ccncc4)c3c2)c1`, the results for the IC50 (in experiment [1]; in the experiment with MCF7) were 0.0094 µM and 8.8 µM, respectively.

Consider `CN(C)CCOc1cc(N)cc(-c2cnc3[nH]cc(-c4ccncc4)c3c2)c1`, for which the IC50 in experiment [1] was 0.0136 µM; in the experiment on MCF7 it was 11.2 µM.

As to `Nc1cncc(-c2cnc3[nH]cc(-c4ccncc4)c3c2)c1`, the figures for the IC50 (in experiment [1]; in the experiment with MCF7) were 0.0696 µM and 5.1 µM, respectively.

Consider `Nc1cc(C(=O)N2CCOCC2)cc(-c2cnc3[nH]cc(-c4ccncc4)c3c2)c1`, for which the IC50 was 0.0647 µM in experiment [1] and > 30 µM in the experiment with MCF7.

As for `Nc1ccc(NS(=O)(=O)c2ccccc2)c(-c2cnc3[nH]cc(-c4ccncc4)c3c2)c1`, in experiment [1], the IC50 amounted to 3.17 µM.

For the compound `Nc1cc(NS(=O)(=O)c2ccc(F)cc2F)cc(-c2cnc3[nH]cc(-c4ccncc4)c3c2)c1`, the IC50 was 0.00297 µM in experiment [1] and 6.6 µM in the experiment with MCF7.

As to `COc1cc(N)cc(-c2cnc3[nH]cc(-c4ccncc4)c3c2)c1`, the IC50 in experiment [1] was 0.0186 µM; in the experiment with MCF7, 8.5 µM.

For the compound `N#Cc1cccc(-c2c[nH]c3ncc(-c4cccc(N)c4)cc23)c1`, in experiment [2], binding was put at a Kd of 0.27 µM. For the same compound, the figures for the Activity in experiment [3] and in experiment [4] were 98% and 2.6%, respectively.

As for `CN(C)c1cccc(-c2cnc3[nH]cc(-c4ccncc4)c3c2)c1`, the IC50 in experiment [1] stood at 0.0265 µM; in the experiment on MCF7, 12.1 µM.

For `CC(=O)Nc1cccc(-c2cnc3[nH]cc(-c4ccncc4)c3c2)c1`, the IC50 worked out at 0.0343 µM in experiment [1] and 9.1 µM with MCF7.

On to `CC(=O)Nc1cc(N)cc(-c2cnc3[nH]cc(-c4ccncc4)c3c2)c1`, for which the results for the IC50 (in experiment [1]; in the experiment with MCF7) were 0.00541 µM and > 30 µM, respectively.

Regarding `Cc1ccc(S(=O)(=O)Nc2cc(N)cc(-c3cnc4[nH]cc(-c5ccncc5)c4c3)c2)cc1`, the IC50 in experiment [1] is 0.00462 µM; with MCF7 it was 10.4 µM.

For `Cc1ccc(-c2cnc3[nH]cc(-c4ccncc4)c3c2)cc1N`, the figures for the IC50 (in experiment [1]; with MCF7) were 0.0222 µM and 2.8 µM, respectively.

Turning to `CNc1cccc(-c2cnc3[nH]cc(-c4ccncc4)c3c2)c1`, the IC50 in experiment [1] came to 0.0314 µM; in the experiment with MCF7, 4.5 µM.

On to `COc1ccc(-c2cnc3[nH]cc(-c4ccncc4)c3c2)cc1N`, for which the IC50 came to 0.0332 µM in experiment [1] and 8.7 µM in the experiment on MCF7.

With `Nc1cc(OCCN2CCOCC2)cc(-c2cnc3[nH]cc(-c4ccncc4)c3c2)c1`, the results for the IC50 (in experiment [1]; in the experiment on MCF7) were 0.00836 µM and 11.2 µM, respectively.
